Patent US4416885A, “Use of isopropylaminopyrimidine in the chemotherapy of muscular dystrophy, myopathy and myotonia” (priority 1982, dated 1983)

What was measured:
[1] = system: plasma AChE (acetylcholinesterase); assay: Plasma AChE; type: in vivo, chicken; parameters: AChE: unit not given here
Method: Chemotherapy was assessed by application of seven different parameters: physical tests of muscular disability, namely the flip test and wing apposition (W.A.) measurements; biochemical assays of serum and muscle enzume levels of creatine phosphokinase (CPK), pyruvate kinase (PK) and acetylcholinesterase (AChE); and histological comparisons of treated and untreated muscle. Toxicity studies (weight loss, etc.) were also used. A very comprehensive profile of the drug was thus obtained which related to all the known, highly characteristic features of the disease which are applicable to both the animal model and the human.
The elevation of this enzyme in the dystrophic chicken occurs from 8 days and reaches a plateau at 100 days, compared to the normal animal where the levels continue to decline slowly. […]
Finally, oral therapy with IAPP was undertaken at gradually increasing dosages up to 1 g/Kg/day. The parameters (physical, biochemical and histological) measured previously were again used to test the efficacy of the drug; five different dosages were used orally, each being given for 30-60 days, daily (Tables VII-XI). A total of 75 animals were treated in the current study with IAPP and 70 control animals were used.

[2] = system: dystrophic New Hampshire chickens, line 413; assay: Toxicity (weight change, other symptoms) in dystrophic chickens; type: in vivo, chicken
Method: Weight measurements are taken weekly, weight loss, diarrhea or any other symptoms are noted. No drugs have yet been described for dystrophy with a beneficial effect without an accompanying weight loss.
The drug was administered daily in water, injected intra-peritoneally, the amount being adjusted on a weekly basis according to the animal's weight.

[3] = 200 mg/Kg i.p. daily for 30 days, day 45 ex ovo
[4] = 200 mg/Kg i.p. daily for 30 days, day 84 ex ovo
[5] = 300 mg/Kg i.p. daily for 30 days, day 45 ex ovo
[6] = 300 mg/Kg i.p. three times weekly for 30 days, day 45 ex ovo
[7] = 300 mg/Kg i.p. three times weekly for 30 days, day 84 ex ovo
[8] = Exp. 2, 40 mg/Kg i.p. daily, day 42-48
[9] = Table VII, oral 200 mg/Kg, 60 days, day 35 ex ovo
[10] = oral 450 mg/Kg daily for 45 days, day 28 ex ovo
[11] = oral 600 mg/Kg daily, day 28 ex ovo
[12] = oral 1 g/Kg daily, day 35 ex ovo

## CC(C)Nc1ncccn1.O=P(O)(O)O [IAPP, 2-isopropylaminopyrimidine orthophosphate]
[1]; [3]
  AChE: 60.4
  AChE, % change from control: -29%
[1]; [4]
  AChE: 87
  AChE, % change from control: -46%
[1]; [5]
  AChE: 48.4
  AChE, % change from control: -43%
[1]; [6]
  AChE: 62.9
  AChE, % change from control: -27%
[1]; [7]
  AChE: 90
  AChE, % change from control: -45%
[1]; [8]
  % AChE Change vs untreated dystrophic controls: -55%
[1]; [9]
  AChE: 77.8
  AChE, % change from control: -6%
[1]; [10]
  AChE: 520
  AChE, % change from control: -12%
[1]; [11]
  AChE: 46.9
  AChE, % change from control: -21%
[1]; [12]
  AChE: 53.9
  AChE, % change from control: -47%
[2]; 200 mg/Kg i.p. daily, level at which it became significant
  Weight loss (after 30 days' treatment): twenty
[2]; Exp. 2, 40 mg/Kg i.p. daily, day 7-13
  % Weight Change vs untreated dystrophic controls: -0.04%
[2]; Exp. 2, 40 mg/Kg i.p. daily, day 14-20
  % Weight Change vs untreated dystrophic controls: -0.07%
[2]; Exp. 2, 40 mg/Kg i.p. daily, day 21-27
  % Weight Change vs untreated dystrophic controls: -0.07%
[2]; Exp. 2, 40 mg/Kg i.p. daily, day 28-34
  % Weight Change vs untreated dystrophic controls: -0.15%
[2]; Exp. 2, 40 mg/Kg i.p. daily, day 35-41
  % Weight Change vs untreated dystrophic controls: -0.08%
[2]; [8]
  % Weight Change vs untreated dystrophic controls: -0.04%
[2]; Exp. 2, 40 mg/Kg i.p. daily, day 49-55
  % Weight Change vs untreated dystrophic controls: -0.04%
[2]; Exp. 2, 40 mg/Kg i.p. daily, day 56-62
  % Weight Change vs untreated dystrophic controls: -0.05%
[2]; Exp. 2, 40 mg/Kg i.p. daily, day 63-71
  % Weight Change vs untreated dystrophic controls: -0.01%
[2]; Exp. 3, 70 mg/Kg
  Toxicity as evidenced by weight loss: detectable toxicity as evidenced by weight loss, but this is still moderate
[2]; Exp. 3, 70 mg/Kg i.p. daily, day 7-13
  % Weight Change vs untreated dystrophic controls: 0%
[2]; Exp. 3, 70 mg/Kg i.p. daily, day 14-20
  % Weight Change vs untreated dystrophic controls: -2%
[2]; Exp. 3, 70 mg/Kg i.p. daily, day 21-27
  % Weight Change vs untreated dystrophic controls: -3%
[2]; Exp. 3, 70 mg/Kg i.p. daily, day 28-34
  % Weight Change vs untreated dystrophic controls: -9%
[2]; Table VII, oral 200 mg/Kg, 60 days
  Maximum Weight Loss: 3%
[2]; initial single injection 100 mg/Kg, over 7 days
  Weight loss / toxic symptoms: no weight loss over 7 days, nor any other toxic symptoms
